In US20030180249A1, “Dosage forms for hygroscopic active ingredients” (priority 2002, published 2003):

Legend:
Type in all cases: physicochemical
[1] = Release of valproate from resinate, flow-thru filtration cell, USP 24 valproic acid dissolution medium; details: 37° C., equivalent of 60 mg sodium valproate
Description: The release of valproate from Resinate A was evaluated and compared to that of sodium valproate. The evaluation was performed using a 50 ml Millipore flow-thru filtration cell operated at 37° C. The dissolution medium was prepared as described in the US Pharmacopeia 24 monograph for Valproic Acid (page 1733).
An amount for resinate containing the equivalent of 60 mg of sodium valproate was used for one test and 60 mg of sodium valproate for the other. Fractions were collected at 20, 40, and 60 minutes. Sample preparation and analysis were done according to the US Pharmacopeia 24 monograph for Valproic Acid (page 1733).

[2] = Storage stability of valproate resinates (severe conditions): moisture uptake and appearance; details: 40° C., 75% Relative Humidity
Description: One gram of each dry resin and resinate were weighed out accurately on an analytical balance in an aluminum dish along with a sample of sodium valproate. They were dried for two hours @60° C. in vaccuo and then placed in an incubator was at 40° C. and 75% Relative Humidity. After 17 hours the samples were removed from the incubator and weighed and observations on appearance were noted. % weight increases were calculated.

[3] = Storage stability of valproate resinates (ambient conditions): appearance over time; details: ambient 25° C., 56% relative humidity
Description: The samples from Example 3 were re-dried @60° C. in vaccuo overnight and then exposed to ambient conditions. During the test the ambient temperature was 25° C. and relative humidity was 56%.

Compound: CCCC(CCC)C(=O)[O-].[Na+] [Na Valproate, sodium valproate]
- % Valproate dissolved or released, 20 mins ([1]; 20 mins): 81.9%
- % Valproate dissolved or released, 40 mins ([1]; 40 mins): 97.8%
- % Valproate dissolved or released, 60 mins ([1]; 60 mins): 100%
- Total release [1]: 60.1 mg
- Moisture uptake (%) ([2]; 17 hours, after drying 2 h at 60° C. in vacuo): 40.4%
- Observation (appearance) ([2]; after 17 hours): Liquid
- Observation (appearance) ([3]; time 7:30): Sodium valproate sample is sticky;
- Observation (appearance) ([3]; time 7:45): Sodium valproate sample is sticky;
